The target in assay [1] is T1, TDO (Homo sapiens, UniProt P48775). As to the kind of experiment: hTDO biochemical coupled assay. The note with it: 330 μM L-tryptophan, coupled with kynurenine formamidase. The procedure: (§1) Exemplary compounds of the invention were prepared, and tested to determine their effect as TDO and/or IDO inhibitors. Two different assays were employed: 1. a cell-based assay for detecting the effect of test compounds on kynurenine production in two different cancer cell types. This assay utilised cancer cells which expressed either TDO or IDO and as such was used as a means of testing compound activity at these two enzymes in a cell-based context. 2. a TDO and IDO biochemical coupled assay which utilised recombinantly produced and purified TDO and IDO enzymes in combination with the enzyme formamidase. This coupled enzyme system allowed conversion of N-formylkynurenine produced by TDO or IDO activity to kynurenine which was then quantified by fluorescence following addition of Erhlich's Reagent The protocols for these are set out below.
T1 sequence (P48775 whole entry): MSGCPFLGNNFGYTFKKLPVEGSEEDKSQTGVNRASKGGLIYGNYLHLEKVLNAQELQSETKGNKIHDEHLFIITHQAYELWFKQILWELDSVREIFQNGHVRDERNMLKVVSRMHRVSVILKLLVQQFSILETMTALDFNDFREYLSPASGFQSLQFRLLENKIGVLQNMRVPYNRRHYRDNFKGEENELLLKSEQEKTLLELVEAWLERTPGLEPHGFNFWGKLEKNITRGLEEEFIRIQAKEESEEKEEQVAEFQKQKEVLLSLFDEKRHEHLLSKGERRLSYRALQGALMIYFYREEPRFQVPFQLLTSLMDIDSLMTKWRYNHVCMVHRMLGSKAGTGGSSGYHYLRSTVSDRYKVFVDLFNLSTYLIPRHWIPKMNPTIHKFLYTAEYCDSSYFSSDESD
(§2) TDO and IDO Biochemical Coupled Assay
(§3) Recombinant human IDO or TDO was incubated in 50 mM KPO4 (pH 7.0), 0.5 mM EGTA, 0.5 mM EDTA, 0.05% Triton™ X100, 20 mM ascorbate, 10 μM methylene blue, 500 U/ml catalase, 50 μg/ml KynB (kynurenine formamidase). TDO assays were carried out in the presence of 330 μM L-tryptophan, while IDO assays had the addition of 45 μM L-tryptophan. After incubation for 17 minutes at room temperature the reactions were stopped by the addition of Erhlich's reagent and incubated at room temperature for 5 minutes before the fluorescence was read (Ex475, Em530).

Assay [2] deals with T2, IDO (Homo sapiens, UniProt P14902). As to the kind of experiment: SKOV3 Kynurenine cell based assay. Further details: IDO expression was induced in the SKOV3 cells by the addition of 500 ng/ml IFN-γ; endogenous in cells; host or cells: SKOV3 (human ovarian adenocarcinoma), induced with IFN-γ. The note with it: SKOV3 (human ovarian adenocarcinoma) cells, IDO induced by 500 ng/ml IFN-γ, 500 μM L-tryptophan, 48 hours. Here is the method: as §1
T2 sequence (P14902 whole entry): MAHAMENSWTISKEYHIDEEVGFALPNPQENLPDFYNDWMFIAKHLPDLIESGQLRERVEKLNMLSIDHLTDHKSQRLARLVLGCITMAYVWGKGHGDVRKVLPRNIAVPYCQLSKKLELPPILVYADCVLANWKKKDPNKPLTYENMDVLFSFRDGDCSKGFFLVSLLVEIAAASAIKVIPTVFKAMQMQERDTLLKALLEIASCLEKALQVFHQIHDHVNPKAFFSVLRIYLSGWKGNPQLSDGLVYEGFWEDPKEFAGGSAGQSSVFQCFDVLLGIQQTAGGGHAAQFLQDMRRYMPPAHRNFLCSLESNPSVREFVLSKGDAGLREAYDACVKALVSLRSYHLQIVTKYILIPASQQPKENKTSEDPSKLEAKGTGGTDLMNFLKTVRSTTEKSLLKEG
(§4) Cell Based Assay for Detection of Kynurenine Produced by TDO and/or IDO
(§5) A172 (human glioblastoma) and SKOV3 (human ovarian adenocarcinoma) cells were seeded in a 96 well plate at 30,000 or 40,000 cells per well respectively in phenol red-free RPMI supplemented with 10% FCS, 2 mM L-glutamine and 500 μM L-tryptophan. IDO expression was induced in the SKOV3 cells by the addition of 500 ng/ml IFN-γ. Cells were incubated at 37° C. with or without the addition of test compound. After 48 hours, the cells were removed by centrifugation and Erhlich's reagent was added to the supernatant. The Erhlich's reagent was incubated for 5 minutes before the absorbance was read at 490 nm.

For assay [3], the target named is T2, IDO. Put plainly: hIDO biochemical coupled assay. The note with it: 45 μM L-tryptophan, coupled with kynurenine formamidase. The procedure:
as §1, §2, §3

The target of assay [4] is T1, TDO. Put plainly: A172 Kynurenine cell based assay. Further details: This assay utilised cancer cells which expressed either TDO or IDO; endogenous in cells; host or cells: A172 (human glioblastoma). The note with it: A172 (human glioblastoma) cells, 500 μM L-tryptophan, 48 hours, kynurenine by Erhlich's reagent. The procedure: as §1, §4, §5

We go through six compounds from US10287252B2, “Inhibitors of tryptophan-2,3-dioxygenase or indoleamine-2,3-dioxygenase” (IOmet Pharma Ltd., priority 2014, dated 2019).

Regarding `O=C(Nc1cccc2cnccc12)C1COc2ccccc2C1` (stereo not drawn) [Compound 6], at TDO [1], the “hTDO biochemical assay pIC50” value is given as “+++ (+++ = pIC50 ≥5.50)”. Besides, at IDO [2], the “SKOV3 Kynurenine cell based assay pIC50” value is on record as “++ (++ = pIC50 4.50-5.49)”. Moreover, the “hIDO biochemical assay pIC50” value at IDO [3] is “+++ (+++ = pIC50 ≥5.50)”. Moreover, the “A172 Kynurenine cell based assay pIC50” value at TDO [4] is “+ (+ = pIC50 4.00-4.49)”.
Take `O=S(=O)(Nc1cccc2cnccc12)c1ccccc1` [Compound 9]: on TDO [1], the “hTDO biochemical assay pIC50” value is “++ (++ = pIC50 4.50-5.49)”. Moreover, on IDO [2], the “SKOV3 Kynurenine cell based assay pIC50” value was “++ (++ = pIC50 4.50-5.49)”. For the same compound, at IDO [3], the “hIDO biochemical assay pIC50” value is “++ (++ = pIC50 4.50-5.49)”. Further, the “A172 Kynurenine cell based assay pIC50” value at TDO [4] is on record as “+++ (+++ = pIC50 ≥5.50)”.
On to `O=S(=O)(Nc1cccc2cnccc12)c1cccc2ccccc12` [Compound 16], for which the “hTDO biochemical assay pIC50” value at TDO [1] is listed as “+ (+ = pIC50 4.00-4.49)”. Further, the “SKOV3 Kynurenine cell based assay pIC50” value at IDO [2] is reported as “++ (++ = pIC50 4.50-5.49)”. The “hIDO biochemical assay pIC50” value at IDO [3] is recorded as “++ (++ = pIC50 4.50-5.49)”. Further, the “A172 Kynurenine cell based assay pIC50” value on TDO [4] was “++ (++ = pIC50 4.50-5.49)”.
As for `O=S(=O)(Nc1cccc2ccncc12)c1ccccc1` [Compound 56], the “hTDO biochemical assay pIC50” value on TDO [1] is listed as “+/− (+/− = pIC50 <4.00)”. The “SKOV3 Kynurenine cell based assay pIC50” value on IDO [2] is reported as “+ (+ = pIC50 4.00-4.49)”. Besides, the “hIDO biochemical assay pIC50” value on IDO [3] is recorded as “+ (+ = pIC50 4.00-4.49)”. The “A172 Kynurenine cell based assay pIC50” value on TDO [4] was “+/− (+/− = pIC50 <4.00)”.
Take `O=S(=O)(Nc1cc(Cl)cc2cnccc12)c1ccc(Cl)cc1` [Compound 57]: the “hTDO biochemical assay pIC50” value at TDO [1] is on record as “+/− (+/− = pIC50 <4.00)”. The “SKOV3 Kynurenine cell based assay pIC50” value at IDO [2] is recorded as “++ (++ = pIC50 4.50-5.49)”. Moreover, at IDO [3], the “hIDO biochemical assay pIC50” value is given as “+ (+ = pIC50 4.00-4.49)”. Further, the “A172 Kynurenine cell based assay pIC50” value on TDO [4] is given as “+/− (+/− = pIC50 <4.00)”.
For `CC(C)Oc1ccc(S(=O)(=O)Nc2cc(Cl)cc3cnccc23)cc1` [Compound 58], on TDO [1], the “hTDO biochemical assay pIC50” value is “+/− (+/− = pIC50 <4.00)”. The “SKOV3 Kynurenine cell based assay pIC50” value on IDO [2] is listed as “++ (++ = pIC50 4.50-5.49)”. Also, on IDO [3], the “hIDO biochemical assay pIC50” value was “+ (+ = pIC50 4.00-4.49)”. At TDO [4], the “A172 Kynurenine cell based assay pIC50” value was “+/− (+/− = pIC50 <4.00)”.
